A short description of data set [1]: Thioether stapling in folded myoglobin: Cys thiol SN2 on the chloroacetamide of genetically encoded p-chloroacetamido-Phe (pCaaF), loss of HCl; spontaneous during E. coli expression (27 °C overnight) and purification, then overnight incubation at pH ~8.5. Particulars: the molecule shown is the open-chain precursor, aqueous (E. coli cytosol, then KPi buffer adjusted to pH ~8.5), other, scale: % stapled.

Data set [2] can be described thus: Thioether stapling in folded myoglobin: Cys thiol SN2 on the bromoethyl ether of genetically encoded O-2-bromoethyl tyrosine (O2beY), loss of HBr. Particulars: the molecule shown is the open-chain precursor, aqueous (E. coli expression), other, scale: 1 = efficient/successful stapling, 0.5 = partial, 0 = failed, cited from earlier work.

Substance “sperm whale Mb(H64V,V68A) + D20S, G23C, D27A, R118pCaaF” gave a ring closure, conversion by HPLC in data set [1] (296-membered ring) of 100.
In turn, “sperm whale Mb(H64V,V68A) + D27pCaaF, H113C, V114G” showed a ring closure, conversion by HPLC in data set [1] (269-membered ring) of 100.
Consider “sperm whale Mb(H64V,V68A) + G5O2beY, D126C”, for which the ring closure, product found in data set [2] (374-membered ring) was 1.
Consider “sperm whale Mb(H64V,V68A) + G5pCaaF, D126C”, for which the ring closure, conversion by HPLC in data set [1] (374-membered ring) is 100.
For “sperm whale Mb(H64V,V68A) + G5pCaaF, H36pCaaF, E109C, D126C”, in data set [1], the ring closure, conversion by HPLC was 100.
The same measure, in the same setting: the value for “sperm whale Mb(H64V,V68A) + G5pCaaF, H36pCaaF, E109C, H113E, D126C” was 100.
Take “sperm whale Mb(H64V,V68A) + H36O2beY, E109C”: the ring closure, product found in data set [2] (230-membered ring) was 1.
The substance “sperm whale Mb(H64V,V68A) + H36pCaaF, E109C” registered a ring closure, conversion by HPLC in data set [1] (230-membered ring) of 78.
Regarding “sperm whale Mb(H64V,V68A) + K16C, H119A, G121O2beY, D122S”, in data set [2] (326-membered ring), the ring closure, product found is 0.
As for “sperm whale Mb(H64V,V68A) + K16C, H119A, G121pCaaF, D122S”, the ring closure, conversion by HPLC in data set [1] (326-membered ring) is 60.
On to “sperm whale Mb(H64V,V68A) + L9R, H12C, D122T, A127O2beY”, for which the ring closure, product found in data set [2] (356-membered ring) was 1.
For “sperm whale Mb(H64V,V68A) + L9R, H12C, D122T, A127pCaaF”, the ring closure, conversion by HPLC in data set [1] (356-membered ring) turned out to be 100.
For the substance “sperm whale Mb(H64V,V68A) + R31O2beY, S35K, E109C”, the ring closure, product found in data set [2] (245-membered ring) is 0.
Regarding “sperm whale Mb(H64V,V68A) + R31pCaaF, S35K, E109C”, the ring closure, conversion by HPLC in data set [1] (245-membered ring) is 100.
